In the NIST ThermoML archive (doi:10.1016/j.jct.2012.11.002):

Conditions: Liquid, Vibrating tube method

CCCCOC(=O)C(C)O (stereo not given) [butyl 2-hydroxypropanoate]
mass density [kg/m3]
Conditions	100 kPa	2500 kPa	5000 kPa	7500 kPa	10000 kPa	20000 kPa	30000 kPa	40000 kPa	50000 kPa	60000 kPa
283.15 K	992.75	994.4	996.14	997.77	999.41	1005.87	1011.69	1017.42	1022.85	1027.71
288.15 K	987.86	989.52	991.32	993.09	994.7	1001.18	1007.12	1012.83	1018.14	1023.26
293.15 K	982.96	984.69	986.5	988.29	990.02	996.69	1002.96	1008.73	1014.33	1019.37
298.15 K	977.96	979.83	981.74	983.49	985.26	992.04	998.37	1004.29	1009.82	1015.17
303.15 K	973.09	974.98	976.81	978.72	980.54	987.67	993.96	1000.06	1005.69	1011.27
308.15 K	967.74	970.01	971.95	973.85	975.59	982.84	989.43	995.62	1001.41	1007.05
313.15 K	963.05	965.11	967.03	969.06	970.96	978.27	985.03	991.43	997.35	1002.99
318.15 K	957.98	960.06	962.11	964.16	966.04	973.62	980.42	986.96	993.12	998.83
323.15 K	952.44	954.61	956.73	958.74	960.79	968.64	975.86	982.37	988.47	994.3
328.15 K	947.31	949.44	951.63	953.79	955.86	963.73	971.08	977.8	984.21	990.17
333.15 K	942.28	944.52	946.72	948.91	951.02	959.28	966.7	973.8	980.2	986.43
338.15 K	937.09	939.39	941.78	943.99	946.05	954.42	962.07	969.19	975.64	982.05

COC(=O)C(C)O (stereo not given) [methyl 2-hydroxypropanoate]
mass density [kg/m3]
Conditions	100 kPa	2500 kPa	5000 kPa	7500 kPa	10000 kPa	20000 kPa	30000 kPa	40000 kPa	50000 kPa	60000 kPa
283.15 K	1104.41	1106	1107.57	1109.14	1110.68	1116.59	1122.23	1127.45	1132.48	1137.4
288.15 K	1098.86	1100.48	1102.13	1103.77	1105.31	1111.55	1117.27	1122.78	1127.98	1132.78
293.15 K	1093.31	1094.99	1096.72	1098.35	1099.92	1106.2	1112.08	1117.65	1122.93	1128.01
298.15 K	1087.76	1089.42	1091.21	1092.88	1094.57	1101.03	1107.23	1112.83	1118.24	1123.43
303.15 K	1082.13	1083.92	1085.75	1087.5	1089.23	1095.82	1101.97	1107.9	1113.44	1118.66
308.15 K	1076.53	1078.32	1080.19	1082	1083.79	1090.68	1097.03	1102.99	1108.63	1114.02
313.15 K	1070.85	1072.76	1074.65	1076.52	1078.39	1085.28	1091.84	1097.99	1103.74	1109.24
318.15 K	1065.11	1067.04	1068.97	1070.94	1072.77	1080.09	1086.77	1093.08	1098.93	1104.49
323.15 K	1059.39	1061.4	1063.43	1065.44	1067.34	1074.67	1081.41	1088	1094.04	1099.76
328.15 K	1053.63	1055.7	1057.77	1059.74	1061.8	1069.41	1076.5	1083.15	1089.4	1095.07
333.15 K	1047.83	1049.97	1052.16	1054.23	1056.23	1064.05	1071.33	1078.01	1084.39	1090.37
338.15 K	1042	1044.15	1046.35	1048.52	1050.63	1058.63	1066.13	1073.12	1079.74	1085.76
